Series [1] in a line: Lipophilicity, log D of the compound. It counts as physicochemical. The note with it: octanol/water.
The target in series [2] is T1, Mineralocorticoid receptor (Homo sapiens, UniProt P08235).
T1 sequence (P08235 whole entry): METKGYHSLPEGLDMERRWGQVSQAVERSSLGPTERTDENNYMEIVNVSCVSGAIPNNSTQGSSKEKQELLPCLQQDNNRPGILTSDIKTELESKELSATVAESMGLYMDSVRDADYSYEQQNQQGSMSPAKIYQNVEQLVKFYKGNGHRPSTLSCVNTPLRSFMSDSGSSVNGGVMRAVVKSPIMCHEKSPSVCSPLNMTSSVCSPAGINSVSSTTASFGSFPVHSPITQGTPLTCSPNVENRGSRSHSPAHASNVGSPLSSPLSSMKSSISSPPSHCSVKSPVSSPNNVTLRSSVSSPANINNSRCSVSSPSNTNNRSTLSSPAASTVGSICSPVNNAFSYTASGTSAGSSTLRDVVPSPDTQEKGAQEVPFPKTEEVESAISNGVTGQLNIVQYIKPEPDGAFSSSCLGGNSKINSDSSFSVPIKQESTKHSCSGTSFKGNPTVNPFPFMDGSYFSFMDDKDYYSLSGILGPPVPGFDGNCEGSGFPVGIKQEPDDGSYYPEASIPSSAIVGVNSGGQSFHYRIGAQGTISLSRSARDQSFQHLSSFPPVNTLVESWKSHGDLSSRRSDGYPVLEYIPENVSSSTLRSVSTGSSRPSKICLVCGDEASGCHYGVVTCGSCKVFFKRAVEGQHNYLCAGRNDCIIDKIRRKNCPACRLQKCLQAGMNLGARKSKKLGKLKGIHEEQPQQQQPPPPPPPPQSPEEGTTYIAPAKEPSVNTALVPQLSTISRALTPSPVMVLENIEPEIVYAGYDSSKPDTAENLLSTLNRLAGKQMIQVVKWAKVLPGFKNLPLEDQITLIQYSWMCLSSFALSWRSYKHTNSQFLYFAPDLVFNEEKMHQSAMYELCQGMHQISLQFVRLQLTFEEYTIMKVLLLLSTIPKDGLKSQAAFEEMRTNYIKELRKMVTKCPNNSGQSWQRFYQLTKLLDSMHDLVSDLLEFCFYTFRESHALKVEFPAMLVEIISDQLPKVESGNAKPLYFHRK
The experiment in a line: Displacement of [3H]aldosterone from GST-tagged human mineralocorticoid receptor ligand binding domain after 4 hrs by liquid scintillation counting.

Series [3] in a line: Apparent intrinsic clearance in human liver microsomes. As to conditions: read-out: CLH(app). It counts as ADME. A general note: Microsomes from liver hold many membrane-bound enzymes, among them those of drug oxidation.

Among the data in ChEMBL document CHEMBL3085697, “Design and synthesis of aryl sulfonamide-based nonsteroidal mineralocorticoid receptor antagonists” (Bioorg Med Chem Lett, 2013) are logD, IC50 and microsomal CLint values, retold here.

Each structure is given as a SMILES string. Bounds are passed on as bounds.

On to `Cc1noc(C)c1S(=O)(=O)NCc1ccc(-c2cccc(C#N)c2)cc1`, for which the logD – broadly, the decadic logarithm of the distribution of all forms, ionised or not, between an organic phase and buffer at a given pH – in series [1] worked out at 3.3. In series [2], the IC50 (as a rule, the concentration needed to halve the response being measured) came out at 40 nM.
As to `Cc1nccn1-c1ccc(CNS(=O)(=O)c2cc(F)ccc2F)cc1F`, the microsomal CLint in series [3] is 49 µL/min/mg. In series [1], this molecule returned a logD of 2.4. Besides, in series [2], the IC50 was determined as 168 nM.
As for `Cc1nccn1-c1ccc(CNS(=O)(=O)c2cc(F)ccc2F)cc1`, in series [3], the microsomal CLint is 30 µL/min/mg. In series [1], this molecule gave a logD of 2.1. This molecule gave an IC50 in series [2] of 627 nM.
The corresponding values for `Cc1nccn1-c1ccc(CNS(=O)(=O)c2ccc(F)cc2F)cc1` are 28 µL/min/mg, 2 and 2090 nM.
The corresponding values for `Cc1noc(C)c1S(=O)(=O)NCc1ccc(-c2cncc(C#N)c2)cc1` are 25 µL/min/mg, 1.9 and 1970 nM.
On the same counts, the results for `Cc1cc(C)c(S(=O)(=O)NCc2ccc(-n3ccnc3C)cc2)c(C)c1` are over 320 µL/min/mg, 3.2 and 121 nM.
On to `Cc1noc(C)c1S(=O)(=O)NCc1ccc(-c2ccccc2)s1`, for which the microsomal CLint in series [3] amounted to 267 µL/min/mg. In series [1], the logD turned out to be 3.9. Also, the IC50 in series [2] worked out at 609 nM.
The corresponding values for `Cc1noc(C)c1S(=O)(=O)NCc1ccc(-c2cccc(NS(C)(=O)=O)c2)cc1` are 39 µL/min/mg, 2.9 and 1390 nM.
On the same counts, the results for `Cc1ccccc1S(=O)(=O)NCc1ccc(-n2ccnc2C)cc1` are 53 µL/min/mg, 2.3 and 1210 nM.
The corresponding values for `Cc1nccn1-c1ccc(CNS(=O)(=O)c2ccccc2F)cc1` are 18 µL/min/mg, 1.8 and 1840 nM.
Take `Cc1noc(C)c1S(=O)(=O)NCc1ccc(-c2cccc(C(N)=O)c2)cc1`: the pH-dependent lipophilicity (logD) in series [1] was found to be 2.4. This molecule yielded a half-inhibitory concentration (IC50) in series [2] of 2030 nM.
As to `Cc1nccn1-c1ccc(CNS(=O)(=O)c2ccccc2Cl)cc1`, the microsomal CLint in series [3] stood at 41 µL/min/mg. This molecule came in with a logD in series [1] of 2. In series [2], this molecule registered an IC50 of 342 nM.
On the same counts, the results for `Cc1noc(C)c1S(=O)(=O)NCc1ccc(-n2ccnc2C)cc1` are 17 µL/min/mg, 1.5 and 4700 nM.
In the case of `Cc1noc(C)c1S(=O)(=O)NCc1ccc(-c2cccnc2)cc1`, the microsomal CLint in series [3] came out at 86 µL/min/mg. For the same molecule, the pH-dependent lipophilicity (logD) in series [1] came to 2.4. Further, the IC50 in series [2] is 1530 nM.
`COc1ccc(C#N)cc1-c1ccc(CNS(=O)(=O)c2c(C)noc2C)cc1`: in series [3], the microsomal CLint was 198 µL/min/mg. The same molecule returned a pH-dependent lipophilicity (logD) in series [1] of 3.2. This molecule also had an IC50 in series [2] of 45 nM.
As to `Cc1noc(C)c1S(=O)(=O)NCc1ccc(-c2ccccc2)cc1`, in series [3], the microsomal CLint stood at 203 µL/min/mg. For the same molecule, the logD in series [1] worked out at 4.1. This molecule also came in with an IC50 in series [2] of 356 nM.
